Results reported in publication PMC11676896, “Protective Action of Cannabidiol on Tiamulin Toxicity in Humans—In Vitro Study” (International Journal of Molecular Sciences, 2024).
Structures can show the parent of a compound that is named as a salt.

Assays:
HepG2 cells [1] = test: DCFH-DA assay of reactive oxygen species (ROS); format: cell-based, human; settings: HepG2, lowest concentration of tiamulin, 72 h
Protocol: (§1) The human neuroblastoma (SH-SY5H), hepatoma (HepG2) and kidney cells (HEK 293) cells were purchased from the American Type Culture Collection: ATCCCRL-2266,ATCC HB-8065 and ATCC CRL-1573, respectively. These cells were cultured in Minimum Essential Medium Eagle (MEME) (ATCC). The media were supplemented with 10% FBS, 1% L-glutamine (and 1% antibiotic solution (P4333 Sigma). The cells were maintained in 75 cm^2 cell culture flasks (NUNC) in a humidified incubator at 37 °C in an atmosphere of 5% CO2. The medium was refreshed every two or three days, and the cells were subcultured by 0.25% trypsin–0.02% EDTA after reaching 70–80% confluence. Single cell suspensions were prepared and adjusted to a density of 2 × 10^5 cell/mL^−1 (SH-SY5H), 1 × 10^5 cell/mL^−1 (HepG2) and 1 × 10^5 cell/mL^−1 (HEK-293). The cell suspension was transferred to 96-well plates (100 µL/well) or Lab-Tek chamber slides (8 wells) (Nunc) for staining and incubated for 24 h before the exposure to the studied compounds. Stock solutions of tiamulin fumarate and cannabidiol were prepared in DMSO and diluted with culture medium to obtain a concentration range from 1.56 to 200 µg/mL and 1.56 or […], respectively. The selection of tiamulin concentrations was based on data from the literature and pilot studies. The final concentration of DMSO was 0.1% in the medium. The same final concentrations of the solvent and the 1% Trition-X 100 solution were used as the negative and positive controls, respectively. A total of 500 µM hydrogen peroxide (H2O2) in was used as the positive control in the DCFH assay. […] As a negative control, cultured cells were grown in the absence of studied compounds. […] Cytotoxicity was assessed after 72 h of exposure of the cells to the compounds. […]
(§2) Intracellular levels of ROS were evaluated using the redox-sensitive fluorescent dye DCFH-DA [62]. […] After 72 h of incubation, the fluorescence of 2′,7′-dichlorofluorescein (DCF) was measured. Fluorescence was determined at 485/530 nm using a fluorescence microplate reader (BioTek® Instruments Inc., Winooski, VT, USA).

SH-SY5Y cells [2] = test: DCFH-DA assay of reactive oxygen species (ROS); format: cell-based, human; settings: lowest concentration of tiamulin, 72 h
Protocol: as §1, §2

HEK-293 cells = test: DCFH-DA assay of reactive oxygen species (ROS); format: cell-based, human; settings: HEK-293, lowest concentration of tiamulin, 72 h
Protocol: as §1, §2

HepG2 cells [3] = test: NRU assay (lysosomal activity); format: cell-based; settings: Homo sapiens, HepG2, 72 h, read-out: inhibited concentration (IC50), NRU
Protocol: The cytotoxic potential of the veterinary drug and its mixtures with cannabidiol at two non-toxic concentrations: 1.56 and 3.15 µg/mL, on the human SH-SY5Y, HepG2 and HEK 293 cell lines was assessed by decreased viability of the cells within five biochemical endpoints: mitochondrial activity and lysosomal activity (MTT assays, reducing the tetrazolium dye MTT 3-(4,5-dimethylthiazol-2-yl)-2,5-diphenyltetrazolium bromide and neutral red uptake (NRU) assays), total protein content (TPC assay), cellular membrane integrity (leakage lactate dehydrogenase (LDH) assay) and DNA synthesis (the bromodeoxyuridine/5-bromo-2′-deoxyuridine incorporation into the DNA cells (BrdU) assay) after 72 h exposition. […]
The human neuroblastoma (SH-SY5H), hepatoma (HepG2) and kidney cells (HEK 293) cells were purchased from the American Type Culture Collection: ATCCCRL-2266,ATCC HB-8065 and ATCC CRL-1573, respectively. […] Cytotoxicity was assessed after 72 h of exposure of the cells to the compounds. […]
This method is based on staining living cells with neutral red, which readily diffuses through the plasma membrane and accumulates in lysosomes. […] After 10 min of shaking, the absorbance of the dissolved NR was measured using a Synergy 2 Multi-Mode Microplate Reader (BioTek® Instruments Inc., Winooski, VT, USA) at 540 nm using a blank as a reference. […]

HepG2 cells [4] = test: MTT assay (mitochondrial activity); format: cell-based, human; settings: HepG2, 72 h
Protocol: (§3) The cytotoxic potential of the veterinary drug and its mixtures with cannabidiol at two non-toxic concentrations: 1.56 and 3.15 µg/mL, on the human SH-SY5Y, HepG2 and HEK 293 cell lines was assessed by decreased viability of the cells within five biochemical endpoints: mitochondrial activity and lysosomal activity (MTT assays, reducing the tetrazolium dye MTT 3-(4,5-dimethylthiazol-2-yl)-2,5-diphenyltetrazolium bromide and neutral red uptake (NRU) assays), total protein content (TPC assay), cellular membrane integrity (leakage lactate dehydrogenase (LDH) assay) and DNA synthesis (the bromodeoxyuridine/5-bromo-2′-deoxyuridine incorporation into the DNA cells (BrdU) assay) after 72 h exposition. Data obtained from the measurement of the optical density in these assays were transformed to percentages in relation to the negative control group (0.1% DMSO in medium), considered to be 100% for the MTT, NRU, TPC and BrdU assays and 0% for the LDH assay. 1% Trition-X 100 solution in medium was used as the positive controls, (Figure 3).
(§4) The human neuroblastoma (SH-SY5H), hepatoma (HepG2) and kidney cells (HEK 293) cells were purchased from the American Type Culture Collection: ATCCCRL-2266,ATCC HB-8065 and ATCC CRL-1573, respectively. These cells were cultured in Minimum Essential Medium Eagle (MEME) (ATCC). The media were supplemented with 10% FBS, 1% L-glutamine (and 1% antibiotic solution (P4333 Sigma). The cells were maintained in 75 cm^2 cell culture flasks (NUNC) in a humidified incubator at 37 °C in an atmosphere of 5% CO2. The medium was refreshed every two or three days, and the cells were subcultured by 0.25% trypsin–0.02% EDTA after reaching 70–80% confluence. Single cell suspensions were prepared and adjusted to a density of 2 × 10^5 cell/mL^−1 (SH-SY5H), 1 × 10^5 cell/mL^−1 (HepG2) and 1 × 10^5 cell/mL^−1 (HEK-293). The cell suspension was transferred to 96-well plates (100 µL/well) or Lab-Tek chamber slides (8 wells) (Nunc) for staining and incubated for 24 h before the exposure to the studied compounds. Stock solutions of tiamulin fumarate and cannabidiol were prepared in DMSO and diluted with culture medium to obtain a concentration range from 1.56 to 200 µg/mL and 1.56 or 3.156 µg/mL, respectively. The selection of tiamulin concentrations was based on data from the literature and pilot studies. The final concentration of DMSO was 0.1% in the medium. The same final concentrations of the solvent and the 1% Trition-X 100 solution were used as the negative and positive controls, respectively. A total of 500 µM hydrogen peroxide (H2O2) in was used as the positive control in the DCFH assay. […] As a negative control, cultured cells were grown in the absence of studied compounds. Each concentration was tested in six replicates in three independent experiments. Cytotoxicity was assessed after 72 h of exposure of the cells to the compounds. The medium was not changed during the incubation time.
(§5) The metabolic activity of living cells was assessed by the measurement of the activity of dehydrogenases. After the incubation of the cells with the studied compounds, 10 μL of the MTT solution (5 mg/mL in PBS) was added to each well of 96-well plates and incubated. After 3 h, the MTT solution was removed, and the intracellular formazan crystals were dissolved in 100 µL DMSO. The plate was shaken for 15 min at room temperature and transferred to a Synergy 2 Multi-Mode Microplate Reader (BioTek® Instruments Inc., Winooski, VT, USA) to measure the absorbance at 570 nm, using a blank as a reference. Cytotoxicity was expressed as a percentage of the negative control (0.1% DMSO in medium).
(§6) This study was performed in three independent experiments. The obtained results are presented as mean values ± SD (standard deviation). […]

SH-SY5Y cells [5] = test: MTT assay (mitochondrial activity); format: cell-based, human; settings: 72 h
Protocol: as §3, §4, §5, §6

HEK 293 cells = test: MTT assay (mitochondrial activity); format: cell-based, human
Protocol: as §3, §4, §5, §6

[6] = test system: SH-SY5Y, HepG2 and HEK-293 cells; test: Cellular morphology, May-Grünwald-Giemsa staining; format: cell-based, human; settings: May-Grunwald staining
Protocol: This method was used to illustrate the changes that occurred in cell morphology under the influence of the tested compounds. The staining was performed on 24-well plates. The cells at a density of 1 × 10^5 cells/mL were used. After 24 h of incubation with the examined drugs or without them (control), the culture media was removed and the cells were stained with 1 mL of May–Grünwald dye for 3 min at room temperature. Then, 1 mL of deionized water was added to each plate. After 3 min of incubation at room temperature, the liquid was removed. All the plates were rinsed with deionized water, and then the cells were stained with Giemsa dye (dilution 1:20) for 30 min at room temperature. After this time, the dye was removed and the wells were rinsed with 1 mL of deionized water and then allowed to dry. The images were taken using a light microscope (Zeiss, Obercochem, Germany).

[7] = Homo sapiens, read-out: inhibited concentration (IC50), MTT

C=C[C@]1(C)C[C@@H](OC(=O)CSCCN(CC)CC)[C@]2(C)[C@H](C)CC[C@]3(CCC(=O)[C@H]32)[C@@H](C)[C@@H]1O [T, tiamulin fumarate]
increase in fluorescence intensity of the probes (ROS) (HepG2 cells [1]): 44%
increase in fluorescence intensity of the probes (ROS) (SH-SY5Y cells [2]): 66%
increase in fluorescence intensity of the probes (ROS) (HEK-293 cells): 91%
IC50 (HepG2 cells [3]): 34.7 ± 1 µg/mL
tiamulin concentration that inhibited mitochondrial activity (HepG2 cells [4]): 12.5 µg/mL
IC50 (HepG2 cells [4]; [7]): 27.4 ± 1.3 µg/mL
tiamulin concentration that inhibited mitochondrial activity (SH-SY5Y cells [5]; significant (p ≤ 0.05) vs negative control): 6.25 µg/mL
IC50 (SH-SY5Y cells [5]; [7]): 30.2 ± 1.8 µg/mL
tiamulin concentration that inhibited mitochondrial activity (HEK 293 cells; HEK-293, 72 h): 25 µg/mL
IC50 (HEK 293 cells; Homo sapiens, HEK293, 72 h, read-out: inhibited concentration (IC50), MTT): 27.5 ± 0.8 µg/mL
changes in cell morphology [6]: detachment from the adhesion surface
